What all share (assay type): cell-based
Experiment [1] concerns E. coli JT39. Put plainly: MIC by standard microtitre technique, ampicillin with and without inhibitor. The following applies: dilution in trytone soy broth. The protocol: (§1) By a standard microtitre technique the MIC values for ampicillin alone, ampicillin and 9-(4-benzyl piperazinyldeoxyclavulanic acid and 9-(4-benzyl)piperazin -1-yldeoxyclavulanic acid alone were determined.

Another experiment has as its system Kleb. aerogenes E70. The experiment is described as above. The following applies: dilution in trytone soy broth. How it is done:
as §1

The next experiment relates to Staph. aureus Russell. Described as above. The settings on record: dilution in trytone soy broth. The protocol: as §1
In a further experiment the test system is S. aureus Russell. Put plainly: MIC by standard microtitre technique, amoxycillin with and without compound.
The next experiment has as its system K. aerogenes E70. Described as above.
Experiment [2] concerns E. coli JT39. The experiment is described as above.
The mark [3] stands for this setting: Amoxycillin + compound, concentration of inhibitor 1.0 µg/ml.
[4] abbreviates: Amoxycillin + compound, concentration of inhibitor 5.0 µg/ml.
[5] abbreviates: Ampicillin + inhibitor at 1µg/ml.
Where [6] appears, read: Ampicillin + inhibitor at 5µg/ml.

Molecules are shown by their SMILES. In brackets after ≈: the same amount, converted by molar mass.

Turning to `CC1(C)S[C@@H]2[C@H](NC(=O)[C@H](N)c3ccccc3)C(=O)N2[C@H]1C(=O)O` [Ampicillin, ampicillin, reference compound], the MIC in the experiment on E. coli JT39 [1] (Ampicillin alone) is above 2000 µg/mL; with Kleb. aerogenes E70 (Ampicillin alone), 1000 µg/mL (≈ 2860 µM); against Staph. aureus Russell (Ampicillin alone), 1000 µg/mL (≈ 2860 µM).

On to `CC1CN(C/C=C2\O[C@@H]3CC(=O)N3[C@H]2C(=O)O)CC(C)O1` (stereo partly shown) [Example 13, 9-(2,6-DimethyLmorpholino)deoxyclavulanic acid], for which the MIC is 1.25 µg/mL with S. aureus Russell (setting [3]); 0.3 µg/mL with S. aureus Russell (setting [4]); 6.2 µg/mL in the experiment with K. aerogenes E70 (setting [3]); 1.5 µg/mL with K. aerogenes E70 (setting [4]); 31.2 µg/mL in the experiment with E. coli JT39 [2] (setting [3]); 4.0 µg/mL in the experiment on E. coli JT39 [2] (setting [4]).

Take `O=C(O)[C@H]1/C(=C/CN2CCN(Cc3ccccc3)CC2)O[C@@H]2CC(=O)N21` [Example 2, 9-(4-Benzylpiperazin-1-yl)deoxyclavulanic acid]: the MIC is 62 µg/mL with E. coli JT39 [1] (setting [5]); 16 µg/mL in the experiment with E. coli JT39 [1] (setting [6]); above 500 µg/mL in the experiment on E. coli JT39 [1] (Inhibitor alone); 25 µg/mL in the experiment with Kleb. aerogenes E70 (setting [5]); 3.1 µg/mL in the experiment with Kleb. aerogenes E70 (setting [6]); 500 µg/mL (≈ 1400 µM) in the experiment with Kleb. aerogenes E70 (Inhibitor alone). In addition, the results for the MIC in the experiment on Staph. aureus Russell (setting [5]), with Staph. aureus Russell (setting [6]) and in the experiment on Staph. aureus Russell (Inhibitor alone) were 0.3 µg/mL, below 0.01 µg/mL and 16 µg/mL (≈ 44.8 µM), respectively.

As to `CCOC(=O)N1CCN(C/C=C2\O[C@@H]3CC(=O)N3[C@H]2C(=O)O)CC1` [Example 4, 9-(4-Ethoxycarbonylpiperazin-1-yl)deoxyclavulanic acid], the MIC in the experiment with S. aureus Russell (setting [3]) is 1.25 µg/mL; in the experiment on S. aureus Russell (setting [4]), 0.3 µg/mL; with K. aerogenes E70 (setting [3]), 6.2 µg/mL; in the experiment on K. aerogenes E70 (setting [4]) it was 1.5 µg/mL; in the experiment with E. coli JT39 [2] (setting [3]) it was 31.2 µg/mL; with E. coli JT39 [2] (setting [4]), 4.0 µg/mL.

For the compound `CC1(C)S[C@@H]2[C@H](NC(=O)[C@H](N)c3ccc(O)cc3)C(=O)N2[C@H]1C(=O)O` [Amoxycillin, reference compound], the MIC in the experiment with S. aureus Russell (Amoxycillin alone), against K. aerogenes E70 (Amoxycillin alone) and against E. coli JT39 [2] (Amoxycillin alone) was 500 µg/mL (≈ 1370 µM) each time.

With `O=C(OCc1ccc([N+](=O)[O-])cc1)[C@H]1/C(=C/CN2CCSCC2)O[C@@H]2CC(=O)N21` [Example 8, p-Nitrobenzyl 9-(thiomorpholino)deoxyclavulanate], the MIC in the experiment with S. aureus Russell (setting [3]) stood at 0.62 µg/mL; in the experiment with K. aerogenes E70 (setting [3]) it was 3.1 µg/mL; in the experiment on K. aerogenes E70 (setting [4]) it was 1.6 µg/mL; with E. coli JT39 [2] (setting [3]), 8.0 µg/mL; with E. coli JT39 [2] (setting [4]) it was 2.0 µg/mL.

`O=C(O)[C@H]1/C(=C/CN2CCN(c3ccccc3)CC2)O[C@@H]2CC(=O)N21` [Example 15, 9-(4-Phenylpiperazin-l-yl)deoxyclavulanic acid]: the MIC worked out at 0.16 µg/mL in the experiment on S. aureus Russell (setting [3]); 12.5 µg/mL with K. aerogenes E70 (setting [3]); 6.2 µg/mL in the experiment with K. aerogenes E70 (setting [4]); 31.2 µg/mL with E. coli JT39 [2] (setting [3]); 4.0 µg/mL in the experiment with E. coli JT39 [2] (setting [4]).

Take `O=C(O)[C@H]1/C(=C/CN2CCOCC2)O[C@@H]2CC(=O)N21` [Example 11, 9-(Morpholino)deoxyclavulanic acid]: the MIC with S. aureus Russell (setting [3]) was found to be 0.6 µg/mL; in the experiment with S. aureus Russell (setting [4]) it was 0.15 µg/mL; in the experiment on K. aerogenes E70 (setting [3]), 3.1 µg/mL; with K. aerogenes E70 (setting [4]), 1.5 µg/mL; with E. coli JT39 [2] (setting [3]) it was 16.0 µg/mL; in the experiment with E. coli JT39 [2] (setting [4]) it was 4.0 µg/mL.

The MIC is the least concentration at which growth counts as inhibited.

The values above are taken from patent EP0028083A1, “Derivatives of clavulanic acid, a process for their preparation and pharmaceutical compositions containing them” (BEECHAM GROUP PLC, priority 1979, dated 1981).
